From PubChem BioAssay AID977614 (Broad Institute, 2014)
Activity calls are given as the source filed them.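 How the source made its calls: active means parasite count per well reduced by over 3 SD from the mean, with host cell number above 80% of untreated; inactive means the rest.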

Test system: L. donovani amastigotes in THP-1 macrophages, DAPI imaging, 72 h
Test: antileishmanial activity in infected macrophages – imaging, THP-1 host macrophages, single concentration (AID 977614);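 further: signal is the parasite per host cell ratio from DAPI stained kinetoplasts and nuclei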

SMILES	AC50
C[C@@H]1CN([C@H](C)CO)C(=O)CCCn2cc(nn2)CO[C@@H]1CN(C)S(=O)(=O)c1cccc(C#N)c1	> 10 µM (inactive)
O=C(NC[C@H]1[C@H](c2ccccc2)[C@@H](CO)N1C(=O)Cc1ccncc1)C1CCC1	> 10 µM (inactive)
C[C@@H]1CN([C@@H](C)CO)C(=O)CCCn2nncc2CO[C@H]1CN(C)Cc1cccc2c1OCCCO2	> 10 µM (inactive)
C[C@@H]1CN([C@@H](C)CO)C(=O)CCCn2cc(nn2)CO[C@H]1CN(C)C(=O)c1ccc(N2CCN(C)CC2)cc1	> 10 µM (inactive)
CCNC[C@@H]1[C@H](c2ccccc2)[C@@H](CO)N1C(=O)Cc1ccccn1	> 10 µM (inactive)
CCN(C[C@H]1N[C@@H](CO)[C@@H]1c1ccccc1)C(=O)c1ccncc1	> 10 µM (inactive)
O=C(c1ccccn1)N1C[C@@H]2[C@H](c3ccccc31)[C@H](CO)N2C(=O)Nc1ccccc1Cl	> 10 µM (inactive)
CC(=O)N1[C@H](CO)[C@@H]2c3ccccc3N(C(=O)c3ccc(F)cc3)C[C@@H]21	> 10 µM (inactive)
O=C(Cc1cccnc1)N1[C@H](CO)[C@H](c2ccccc2)[C@H]1CNCC1CCC1	> 10 µM (inactive)
C[C@@H]1CN([C@@H](C)CO)C(=O)CCCn2nncc2CO[C@H]1CN(C)C(=O)CCC(F)(F)F	> 10 µM (inactive)
C[C@@H]1CN([C@H](C)CO)C(=O)CCCn2nncc2CO[C@H]1CN(C)Cc1ccc2cccnc2c1	> 10 µM (inactive)
C[C@@H]1CN([C@H](C)CO)C(=O)CCCn2nncc2CO[C@@H]1CN(C)Cc1ccc2c(c1)OCCN2C	> 10 µM (inactive)
C[C@@H]1CN([C@H](C)CO)C(=O)CCCn2cc(nn2)CO[C@H]1CN(C)C(=O)Nc1ccc2c(c1)OCO2	> 10 µM (inactive)
CN1C[C@@H]2[C@H](c3ccccc31)[C@H](CO)N2S(=O)(=O)c1ccccc1	> 10 µM (inactive)
C/C=C/c1ccc([C@H]2[C@@H](CO)N(C(C)=O)[C@H]2CN(C(C)=O)C2CCCC2)cc1	> 10 µM (inactive)
C[C@H](CO)N1C[C@H](C)[C@@H](CN(C)Cc2ccccc2)OCc2cn(nn2)CCCC1=O	> 10 µM (inactive)
C[C@@H]1CN([C@@H](C)CO)C(=O)CCCn2cc(nn2)CO[C@@H]1CN(C)C(=O)NC1CCCCC1	> 10 µM (inactive)
O=C(c1ccccn1)N1C[C@@H]2[C@H](c3ccccc31)[C@@H](CO)N2C(=O)Nc1ccccc1Cl	> 10 µM (inactive)
Cc1noc(C)c1NC(=O)N(C)C[C@@H]1OCc2cn(nn2)CCCC(=O)N([C@H](C)CO)C[C@H]1C	> 10 µM (inactive)
C[C@H](CO)N1C[C@H](C)[C@@H](CN(C)C(=O)Nc2cccc(Oc3ccccn3)c2)OCc2cnnn2CCCC1=O	> 10 µM (inactive)
CC(=O)N1[C@H](CNC(=O)C2CC2)[C@@H](c2ccc(-c3ccccc3)cc2)[C@@H]1CO	> 10 µM (inactive)
CNC[C@H]1OCc2cn(nn2)CCCC(=O)N([C@@H](C)CO)C[C@@H]1C	> 10 µM (inactive)
COc1ccc(C(=O)N2C[C@@H]3[C@H](c4ccccc42)[C@@H](CO)N3C(=O)Cc2ccccn2)cc1	> 10 µM (inactive)
C[C@H](CO)N1C[C@H](C)[C@@H](CN(C)C(=O)CCC(F)(F)F)OCc2cnnn2CCCC1=O	> 10 µM (inactive)

SMILES	AC50
O=C(Cc1ccccc1)N1C[C@H]2[C@@H](c3ccccc31)[C@H](CO)N2S(=O)(=O)c1ccccc1	> 10 µM (inactive)
O=C(CC(F)(F)F)N1C[C@H]2[C@@H](c3ccccc31)[C@H](CO)N2CC1CCOCC1	> 10 µM (inactive)
C[C@@H]1CN([C@H](C)CO)C(=O)CCCn2cc(nn2)CO[C@@H]1CN(C)C(=O)c1ccc(N2CCN(C)CC2)cc1	> 10 µM (inactive)
COCC(=O)N1[C@H](CNC(=O)c2ccccn2)[C@@H](c2ccccc2)[C@@H]1CO	> 10 µM (inactive)
O=C(NC[C@@H]1[C@@H](c2ccccc2)[C@@H](CO)N1C(=O)C1CCC1)NC1CCCC1	> 10 µM (inactive)
COc1ccccc1NC(=O)N1C[C@H]2[C@@H](c3ccccc31)[C@H](CO)N2Cc1ccc2c(c1)OCO2	> 10 µM (inactive)
O=C(Nc1ccc(Cl)cc1)N1C[C@H]2[C@@H](c3ccccc31)[C@@H](CO)N2CC1CCCCC1	> 10 µM (inactive)
C[C@H]1CN([C@@H](C)CO)C(=O)CCCn2nncc2CO[C@H]1CN(C)C(=O)Nc1ccccc1C(F)(F)F	> 10 µM (inactive)
O=C(C1CCCCC1)N1[C@@H](CO)[C@@H]2c3ccccc3N(S(=O)(=O)c3ccccc3)C[C@@H]21	> 10 µM (inactive)
CCCNC(=O)N1C[C@H]2[C@@H](c3ccccc31)[C@@H](CO)N2Cc1cccc(OC)c1	> 10 µM (inactive)
C[C@H](CO)N1C[C@H](C)[C@H](CN(C)S(=O)(=O)c2ccccc2C#N)OCc2cnnn2CCCC1=O	> 10 µM (inactive)
C[C@@H]1CN([C@H](C)CO)C(=O)CCCn2nncc2CO[C@H]1CN(C)Cc1ccc2c(c1)OCCN2C	> 10 µM (inactive)
CCNC[C@H]1[C@@H](c2ccccc2)[C@@H](CO)N1C(=O)Cc1ccccn1	> 10 µM (inactive)
Cc1cccc(S(=O)(=O)N2C[C@@H]3[C@H](c4ccccc42)[C@@H](CO)N3C(=O)c2ccccc2)c1	> 10 µM (inactive)
O=C(NC[C@@H]1[C@@H](c2ccccc2)[C@H](CO)N1C(=O)C1CCC1)NC1CCCC1	> 10 µM (inactive)
O=C(CN1CCOCC1)N1[C@@H]2CNc3ccccc3[C@@H]2[C@@H]1CO	> 10 µM (inactive)
COc1ccccc1CN1[C@@H](CO)[C@@H]2c3ccccc3N(C(=O)C3CCOCC3)C[C@@H]21	> 10 µM (inactive)
C[C@H](CO)N1C[C@H](C)[C@H](CN(C)C(=O)Nc2ccccc2C(F)(F)F)OCc2cnnn2CCCC1=O	> 10 µM (inactive)
C[C@@H]1CN([C@@H](C)CO)C(=O)CCCn2cc(nn2)CO[C@@H]1CN(C)C(=O)Nc1cccc2ccccc12	> 10 µM (inactive)
C/C=C/c1ccc([C@@H]2[C@@H](CN(CC)C(C)=O)N(Cc3cccnc3)[C@H]2CO)cc1	> 10 µM (inactive)
C[C@@H]1CN([C@H](C)CO)C(=O)CCCn2cc(nn2)CO[C@@H]1CN(C)C(=O)Nc1cccc(C(F)(F)F)c1	> 10 µM (inactive)
Cc1noc(C)c1S(=O)(=O)N(C)C[C@@H]1OCc2cn(nn2)CCCC(=O)N([C@@H](C)CO)C[C@H]1C	> 10 µM (inactive)
O=C(C1CCCCC1)N1[C@H](CO)[C@H]2c3ccccc3NC[C@H]21	> 10 µM (inactive)
O=C(C1CCOCC1)N1C[C@H]2[C@@H](c3ccccc31)[C@H](CO)N2C(=O)Cc1ccccn1	> 10 µM (inactive)
